In patent US12458621B1, “Application of genipin beta-methyl derivative gen-17 in preparation of drug for prevention and treatment of acute severe pneumonia” (KUNMING MEDICAL UNIVERSITY, priority 2024, dated 2025):

Key:
Type in all cases: in vivo, Kunming mice
[1] = system: IkB-α; assay: IkB-α mRNA in lung tissue by qRT-PCR; details: Gen-17 (12.5, 25, 50 mg/kg gavage) compared with LPS group (P<0.001)
Experimental: (§1) A total of 144 SPF-grade healthy Kunming mice, aged 5-7 weeks and weighing 18-22 g, are weighed and randomly allocated into six experimental groups: control group (NS), model group (LPS), dexamethasone group (DEX, […] per kilogram abbreviated as mg/kg), genipin beta-methyl derivative low-dose group (12.5 mg/kg), genipin beta-methyl derivative medium-dose group (25 mg/kg), and genipin beta-methyl derivative high-dose group (50 mg/kg), 24 animals per group, in which 12 animals are used to take lung tissue for the detection of other indicators, and another 12 animals are used to collect BALF. […]
(§2) Samples are collected 24 hours after the animal model is established. […] Lung tissues are collected and the whole lung wet weight is measured. […] After tidying, the lungs are photographed, excess tissues such as the trachea are cleared away, and the wet weight of the whole lung is measured to calculate the lung index. • (3) The upper lobe of the left lung is fixed in 4% neutral paraformaldehyde, fixed for 24 hours, paraffin-embedded and sectioned for HE staining. • (4) The remaining lung tissues are put into centrifugal tubes separately, quickly frozen in liquid nitrogen, and then stored at −80° C. after the experiment, which is used for the detection of MDA, SOD, western blotting (WB) and reverse transcription polymerase chain reaction (RT-PCR). […]

[2] = system: IL-1β; assay: IL-1β mRNA in lung tissue by qRT-PCR; details: Gen-17 (12.5, 25, 50 mg/kg gavage) compared with LPS group (P<0.001)
Experimental: as §1, §2

[3] = system: Keap1; assay: Keap1 protein in lung tissue by WB
Experimental: (§3) The dosage is converted according to the weight of the mice, and the gavage volume is 20 milliliters per kilogram (mL/kg), and the gavage is continued for 3 days. One hour after the gavage on the third day, the ALI model is established by tracheal instillation of LPS solution. […] After the mice are awake, they are raised as usual. 2.3 Treatment of Experimental Animals and Collection of Lung Tissue Specimens
Samples are collected 24 hours after the animal model is established. The mice are weighed and 12 mice in each group are sacrificed. Lung tissues are collected and the whole lung wet weight is measured. […] After tidying, the lungs are photographed, excess tissues such as the trachea are cleared away, and the wet weight of the whole lung is measured to calculate the lung index. • (3) The upper lobe of the left lung is fixed in 4% neutral paraformaldehyde, fixed for 24 hours, paraffin-embedded and sectioned for HE staining. • (4) The remaining lung tissues are put into centrifugal tubes separately, quickly frozen in liquid nitrogen, and then stored at −80° C. after the experiment, which is used for the detection of MDA, SOD, western blotting (WB) and reverse transcription polymerase chain reaction (RT-PCR). […]
The lung tissue is taken out from −80° C., and its weight is accurately measured. […]

[4] = system: ERK phosphorylated protein; assay: ERK phosphorylated protein in lung tissue by WB
Experimental: as §1, §2

[5] = system: LPS-induced ALI mice; assay: HE staining histopathology and alveolitis score of lung tissue; details: for pathological scores of alveolitis: compared with DEX group (P<0.05)
Experimental: as §3
Samples are collected 24 hours after the animal model is established. The mice are weighed and 12 mice in each group are sacrificed. Lung tissues are collected and the whole lung wet weight is measured. The lung tissues are packaged for hematoxylin and eosin (HE) staining, MDA and SOD content determination, gene and protein detection. The specific experimental procedures are as follows. • (1) 12 mice in each group are weighed and their necks are dislocated and sacrificed. • (2) The mice are fixed. The abdomen is wiped with 75% alcohol. The thoracic cavity is then opened, and the lung tissue is removed. After tidying, the lungs are photographed, excess tissues such as the trachea are cleared away, and the wet weight of the whole lung is measured to calculate the lung index. • (3) The upper lobe of the left lung is fixed in 4% neutral paraformaldehyde, fixed for 24 hours, paraffin-embedded and sectioned for HE staining. • (4) The remaining lung tissues are put into centrifugal tubes separately, quickly frozen in liquid nitrogen, and then stored at −80° C. after the experiment, which is used for the detection of MDA, SOD, western blotting (WB) and reverse transcription polymerase chain reaction (RT-PCR). 2.4 BALF Collection and Processing

[6] = system: TNF-α; assay: TNF-α content in BALF by ELISA
Experimental: (§4) A total of 144 SPF-grade healthy Kunming mice, aged 5-7 weeks and weighing 18-22 g, are weighed and randomly allocated into six experimental groups: control group (NS), model group (LPS), dexamethasone group (DEX, […] per kilogram abbreviated as mg/kg), genipin beta-methyl derivative low-dose group (12.5 mg/kg), genipin beta-methyl derivative medium-dose group (25 mg/kg), and genipin beta-methyl derivative high-dose group (50 mg/kg), 24 animals per group, in which 12 animals are used to take lung tissue for the detection of other indicators, and another 12 animals are used to collect BALF.
(§5) All mice are gavaged with a same volume of 0.9% normal saline once a day in the NS group and the LPS group, DEX solution (0.39 mg/kg) is gavaged once a day in the DEX group, low-dose Gen-17 solution (12.5 mg/kg) is gavaged once a day in the medium-dose Gen-17 group, medium-dose Gen-17 solution (25 mg/kg) is gavaged once a day in the high-dose Gen-17 group, and high-dose Gen-17 solution (50 mg/kg) is gavaged once a day in the high-dose Gen-17 group. The dosage is converted according to the weight of the mice, and the gavage volume is 20 milliliters per kilogram (mL/kg), and the gavage is continued for 3 days. One hour after the gavage on the third day, the ALI model is established by tracheal instillation of LPS solution. […]

[7] = system: Keap1; assay: Keap1 gene expression in lung tissue by qRT-PCR
Experimental: as §1, §2

[8] = system: IL-1β; assay: IL-1β content in BALF by ELISA
Experimental: as §4, §5

[9] = Gen-17 groups (12.5, 25, 50 mg/kg gavage) compared with LPS group

Compound: COC(=O)C1=CO[C@@H](OC)[C@@H]2C(COC(=O)c3cccc(Br)c3)=CC[C@H]12 [Gen-17, genipin beta-methyl derivative]
- mRNA expression of IkB-α in lung tissue [1]: significantly reduce the expression
- mRNA expression of IL-1β in lung tissue [2]: significantly reduce the expression
- expression of Keap1 protein in lung tissue, overall result ([3]; Gen-17 12.5, 25, 50 mg/kg gavage, ALI mice): downregulate the expression of Keap1 protein
- expression of Keap1 protein in lung tissue (decrease) ([3]; high-dose Gen-17 50 mg/kg gavage, compared with LPS group): statistically significant (P<0.001)
- expression of ERK phosphorylated protein in lung tissue ([4]; after drug treatment, compared with LPS group): down-regulate the expression of p38, ERK and JNK proteins
- expression of ERK phosphorylated protein in lung tissue ([4]; low-dose Gen-17 12.5 mg/kg gavage, compared with DEX group): statistically significant (P<0.05)
- pathological damage of lung tissue (HE staining) [5, 9]: significantly alleviate the pathological damage
- pathological score of lung tissue ([5]; high-dose Gen-17 50 mg/kg gavage, compared with LPS group (P<0.01)): significantly reduced
- pathological scores of alveolitis ([5]; low-dose Gen-17 12.5 mg/kg gavage): increased
- pathological scores of alveolitis ([5]; medium-dose Gen-17 25 mg/kg gavage): increased
- reduction of the TNF-α level in BALF ([6]; Gen-17 compared with DEX group (P>0.05)): no statistically significant difference
- content of TNF-α in BALF [6, 9]: reduce the contents of inflammatory cytokines
- expression of Keap1 gene in lung tissue ([7]; Gen-17 groups (12.5, 25, 50 mg/kg gavage) compared with DEX group (P<0.001)): significantly increased
- expression of Keap1 gene in lung tissue ([7]; Gen-17 groups (12.5, 25, 50 mg/kg gavage) compared with NS group): significantly increased (P<0.001)
- content of IL-1β in BALF ([8]; Gen-17 groups (12.5, 25, 50 mg/kg gavage) compared with LPS group (P<0.05)): reduce the contents of inflammatory cytokines
- IL-1β level in BALF ([8]; low-dose Gen-17 12.5 mg/kg gavage, compared with DEX group (P<0.01)): statistically significant reduction
